From US8895585B2, “Nicotinamide derivative or salt thereof” (FUJIFILM Corporation, priority 2010, dated 2014)

Legend:
[1] = biological target: T1, glutathione S-transferase (GST)-fused full-length human Syk protein (Homo sapiens, UniProt P43405); test: Syk enzyme assay; assay type: biochemical; settings: Syk enzyme assay, Test Example 1; read-out: IC50 of Syk-inhibitory activity
T1 construct: (GST)-fused full-length human Syk protein; GST (glutathione S-transferase); purchased Carna Biosciences
How it was run: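 IC50 values come from a time-resolved FRET readout (615 and 665 nm) of substrate phosphorylation, measured after an EDTA stop and 1 h antibody binding. The kinase reaction ran 40 min at room temperature with 27 μM ATP and 0.4 μM biotin-peptide, following a 15 min compound preincubation with baculovirus-made GST-full-length human Syk.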

THP-1 cells = test: TNFα generation assay; assay type: cell-based, human; settings: Homo sapiens, THP-1, THP-1 cells; Table 22; read-out: IC50 in TNFα generation assay
How it was run: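 Secreted TNFα in supernatant quantified by ELISA or AlphaLISA after 7 h culture on human IgG-coated wells (10 μg/ml coating). Cells were IFN-γ-differentiated THP-1 (10 ng/ml, 2 days), exposed to compound for 30 min at room temperature before plating.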

IC50 [1] | IC50 (THP-1 cells) | Compound
< 10 nM | 65 to 130 nM | CC(C)C[C@@H](Nc1nc(Nc2ccc3c(c2)c(F)nn3CC(F)F)c(C(N)=O)cc1F)[C@H](C)N [Example 006-513, 6-(((2S,3R)-2-amino-5-methylhexan-3-yl)amino)-2-((1-(2,2-difluoroethyl)-3-fluoro-1H-indazol-5-yl)amino)-5-fluoronicotinamide]
< 10 nM | 130 to 200 nM | C[C@H](N)[C@H](Nc1nc(Nc2ccc(N3CCOCC3)nc2)c(C(N)=O)cc1F)C1CC1 [Example 006-515, 6-(((1R,2S)-2-amino-1-cyclopropylpropyl)amino)-5-fluoro-2-((6-morpholinopyridin-3-yl)amino)nicotinamide]
< 10 nM | < 65 nM | CCn1ncc2cc(Nc3nc(N[C@H](c4ccccc4)[C@H](C)N)c(F)cc3C(N)=O)ccc21 [Example 006-516, 6-(((1R,2S)-2-amino-1-phenylpropyl)amino)-2-((1-ethyl-1H-indazol-5-yl)amino)-5-fluoronicotinamide]
< 10 nM | 65 to 130 nM | COCCOc1ncc(Nc2nc(N[C@@H]3CCCC[C@@H]3N)c(F)cc2C(N)=O)cc1-n1nccn1 [Example 006-517, 6-(((1R,2S)-2-aminocyclohexyl)amino)-5-fluoro-2-((6-(2-methoxyethoxy)-5-(2H-1,2,3-triazol-2-yl)pyridin-3-yl)amino)nicotinamide]
< 10 nM | 65 to 130 nM | CCn1ncc2c(Nc3nc(N[C@H](CC(C)C)[C@H](C)N)c(F)cc3C(N)=O)cccc21 [Example 006-519, 6-(((2S,3R)-2-amino-5-methylhexan-3-yl)amino)-2-((1-ethyl-1H-indazol-4-yl)amino)-5-fluoronicotinamide]
< 10 nM | < 65 nM | Cc1nn(C)c2ccc(Nc3nc(N[C@H](CC(C)C)[C@H](C)N)c(F)cc3C(N)=O)cc12 [Example 006-520, 6-(((2S,3R)-2-amino-5-methylhexan-3-yl)amino)-2-((1,3-dimethyl-1H-indazol-5-yl)amino)-5-fluoronicotinamide]
< 10 nM | 65 to 130 nM | CCn1nc(C)c2cc(Nc3nc(N[C@H](CC(C)C)[C@H](C)N)c(F)cc3C(N)=O)ccc21 [Example 006-521, 6-(((2S,3R)-2-amino-5-methylhexan-3-yl)amino)-2-((1-ethyl-3-methyl-1H-indazol-5-yl)amino)-5-fluoronicotinamide]
< 10 nM | < 65 nM | Cc1nn(CC(F)F)c2ccc(Nc3nc(N[C@H](CC(C)C)[C@H](C)N)c(F)cc3C(N)=O)cc12 [Example 006-522, 6-(((2S,3R)-2-amino-5-methylhexan-3-yl)amino)-2-((1-(2,2-difluoroethyl)-3-methyl-1H-indazol-5-yl)amino)-5-fluoronicotinamide]
< 10 nM | < 65 nM | CC[C@@H](Nc1nc(Nc2cccc3c2cnn3CC)c(C(N)=O)cc1F)[C@H](C)N [Example 006-523, 6-(((2S,3R)-2-aminopentan-3-yl)amino)-2-((1-ethyl-1H-indazol-4-yl)amino)-5-fluoronicotinamide]
< 10 nM | < 65 nM | CC[C@@H](Nc1nc(Nc2ccc3c(c2)c(C)nn3C)c(C(N)=O)cc1F)[C@H](C)N [Example 006-524, 6-(((2S,3R)-2-aminopentan-3-yl)amino)-2-((1,3-dimethyl-1H-indazol-5-yl)amino)-5-fluoronicotinamide]
< 10 nM | 65 to 130 nM | CC[C@@H](Nc1nc(Nc2ccc3c(c2)c(C)nn3CC)c(C(N)=O)cc1F)[C@H](C)N [Example 006-525, 6-(((2S,3R)-2-aminopentan-3-yl)amino)-2-((1-ethyl-3-methyl-1H-indazol-5-yl)amino)-5-fluoronicotinamide]
< 10 nM | < 65 nM | CC[C@@H](Nc1nc(Nc2ccc3c(c2)c(C)nn3CC(F)F)c(C(N)=O)cc1F)[C@H](C)N [Example 006-526, 6-(((2S,3R)-2-aminopentan-3-yl)amino)-2-((1-(2,2-difluoroethyl)-3-methyl-1H-indazol-5-yl)amino)-5-fluoronicotinamide]
< 10 nM | 65 to 130 nM | COc1cc(Nc2nc(N[C@@H]3CCOC[C@@H]3N)c(F)cc2C(N)=O)ccn1 [Example 006-531, 6-(((3R,4R)-3-aminotrahydro-2H-pyran-4-yl)amino)-5-fluoro-2-((2-methoxypyridin-4-yl)amino)nicotinamide]
10 to 50 nM | 65 to 130 nM | NC(=O)c1cc(F)c(N[C@@H]2CCCC[C@@H]2N)nc1Nc1ccc(N2CCOC2=O)nc1 [Example 006-537, 6-(((1R,2S)-2-aminocyclohexyl)amino)-5-fluoro-2-((6-(2-oxooxazolidin-3-yl)pyridin-3-yl)amino)nicotinamide]
< 10 nM | 130 to 200 nM | CCc1nn(C)c2ccc(Nc3nc(N[C@H](CC)[C@H](C)N)c(F)cc3C(N)=O)cc12 [Example 006-539, 6-(((2S,3R)-2-aminopentan-3-yl)amino)-2-((3-ethyl-1-methyl-1H-indazol-5-yl)amino)-5-fluoronicotinamide]
< 10 nM | 130 to 200 nM | CCc1nn(CC)c2ccc(Nc3nc(N[C@H](CC)[C@H](C)N)c(F)cc3C(N)=O)cc12 [Example 006-541, 6-(((2S,3R)-2-aminopentan-3-yl)amino)-2-((1,3-diethyl-1H-indazol-5-yl)amino)-5-fluoronicotinamide]
< 10 nM | 65 to 130 nM | CC[C@@H](Nc1nc(Nc2ccc3c(c2)c(C(C)C)nn3C)c(C(N)=O)cc1F)[C@H](C)N [Example 006-543, 6-(((2S,3R)-2-aminopentan-3-yl)amino)-5-fluoro-2-((3-isopropyl-1-methyl-1H-indazol-5-yl)amino)nicotinamide]
< 10 nM | 65 to 130 nM | Cn1nc(C2CC2)c2cc(Nc3nc(N[C@@H]4CCCC[C@@H]4N)c(F)cc3C(N)=O)ccc21 [Example 006-544, 6-(((1R,2S)-2-aminocyclohexyl)amino)-2-((3-cyclopropyl-1-methyl-1H-indazol-5-yl)amino)-5-fluoronicotinamide]
< 10 nM | 65 to 130 nM | C[C@H](N)[C@@H](CC1CC1)Nc1nc(Nc2ccc3c(c2)c(C2CC2)nn3C)c(C(N)=O)cc1F [Example 006-545, 6-(((2R,3S)-3-amino-1-cyclopropylbutan-2-yl)amino)-2-((3-cyclopropyl-1-methyl-1H-indazol-5-yl)amino)-5-fluoronicotinamide]
< 10 nM | 130 to 200 nM | CC(C)C[C@@H](Nc1nc(Nc2ccc3c(c2)c(C2CC2)nn3C)c(C(N)=O)cc1F)[C@H](C)N [Example 006-546, 6-(((2S,3R)-2-amino-5-methylhexan-3-yl)amino)-2-((3-cyclopropyl-1-methyl-1H-indazol-5-yl)amino)-5-fluoronicotinamide]
< 10 nM | 65 to 130 nM | CC[C@@H](Nc1nc(Nc2ccc3c(c2)c(C2CC2)nn3C)c(C(N)=O)cc1F)[C@H](C)N [Example 006-547, 6-(((2S,3R)-2-aminopentan-3-yl)amino)-2-((3-cyclopropyl-1-methyl-1H-indazol-5-yl)amino)-5-fluoronicotinamide]
< 10 nM | 65 to 130 nM | CCn1nc(C2CC2)c2cc(Nc3nc(N[C@@H]4CCCC[C@@H]4N)c(F)cc3C(N)=O)ccc21 [Example 006-548, 6-(((1R,2S)-2-aminocyclohexyl)amino)-2-((3-cyclopropyl-1-ethyl-1H-indazol-5-yl)amino)-5-fluoronicotinamide]
< 10 nM | 130 to 200 nM | CCn1nc(C2CC2)c2cc(Nc3nc(N[C@H](CC(C)C)[C@H](C)N)c(F)cc3C(N)=O)ccc21 [Example 006-550, 6-(((2S,3R)-2-amino-5-methylhexan-3-yl)amino)-2-((3-cyclopropyl-1-ethyl-1H-indazol-5-yl)amino)-5-fluoronicotinamide]
< 10 nM | 130 to 200 nM | CC[C@@H](Nc1nc(Nc2ccc3c(c2)c(C2CC2)nn3CC)c(C(N)=O)cc1F)[C@H](C)N [Example 006-551, 6-(((2S,3R)-2-aminopentan-3-yl)amino)-2-((3-cyclopropyl-1-ethyl-1H-indazol-5-yl)amino)-5-fluoronicotinamide]
10 to 50 nM | 65 to 130 nM | COCCOc1ncc(Nc2nc(N[C@@H]3CCCC[C@@H]3N)c(F)cc2C(N)=O)cc1F [Example 006-552, 6-(((1R,2S)-2-aminocyclohexyl)amino)-5-fluoro-2-((5-fluoro-6-(2-methoxyethoxy)pyridin-3-yl)amino)nicotinamide]
< 10 nM | 130 to 200 nM | NC(=O)c1cc(F)c(N[C@@H]2CCCC[C@@H]2N)nc1Nc1cnc(C2CC2)c(F)c1 [Example 006-553, 6-(((1R,2S)-2-aminocyclohexyl)amino)-2-((6-cyclopropyl-5-fluoropyridin-3-yl)amino)-5-fluoronicotinamide]
10 to 50 nM | 130 to 200 nM | CCc1ncc(Nc2nc(N[C@@H]3CCCC[C@@H]3N)c(F)cc2C(N)=O)cc1F [Example 006-554, 6-(((1R,2S)-2-aminocyclohexyl)amino)-2-((6-ethyl-5-fluoropyridin-3-yl)amino)-5-fluoronicotinamide]
< 10 nM | 65 to 130 nM | CCn1ncc2cc(Nc3nc(N[C@H](c4ccc(F)cc4)[C@H](C)N)c(F)cc3C(N)=O)ccc21 [Example 006-555, 6-(((1R,2S)-2-amino-1-(4-fluorophenyl)propyl)amino)-2-((1-ethyl-1H-indazol-5-yl)amino)-5-fluoronicotinamide]
